Assay results: paper PMC3330111, “Computational Design of a PDZ Domain Peptide Inhibitor that Rescues CFTR Activity” (PLoS Computational Biology, 2012)
Entries after “also recorded” stand apart in the source; their conditions may differ. Ends that are not written are not given here.

How the values were obtained:
ΔF508-CFTR chloride flux [1] = settings: CFBE-ΔF cells, identical experimental conditions; ref [1]; cited from earlier work
Description: While this effect is clearly statistically significant ( ), we also wished to assess its magnitude relative to the effect of known rescue compounds. The performance of kCAL01 was benchmarked using polarized human airway epithelial cells derived from a CF patient (stably expressing ΔF508-CFTR; CFBE- F cells). In these cells, CFTR rescue is more challenging than in heterologous cells, but the levels of rescue observed are more likely to reflect the physiological situation. Since CFTR modulation is extremely sensitive to experimental con ...

CAL PDZ domain [2] = target: T1, CAL PDZ domain (Homo sapiens, UniProt Q9HD26); experiment: fluorescence polarization (FP) competition binding; settings: for Ki: FP competition, compared with best previously known hexamer (iCAL35), read-out: Experimental Ki, mark †
Description: The inhibitor dissociation constants of top- and poorly-ranked peptide sequences from the [drawing 176] CAL-CFTR design were experimentally determined. As a control, the best known peptide hexamer was also retested. The corresponding N-terminally acetylated peptides were purchased from NEO BioScience (Cambridge, MA) and the [drawing 177] values for the peptides were detected using fluorescence polarization (FP), using the method previously described in [59]. […] Each peptide inhibitor was serially diluted and the protein-peptide mixture was added to each dilution. Finally, the amount of competitive inhibition was tracked using residual fluorescence polarization at temperatures between [drawing 178] . Each [drawing 179] value is reported as an average of three FP experiments conducted on separate days along with the corresponding standard deviation.

ΔF508-CFTR chloride flux [3] = experiment: Ussing chamber chloride flux in CFBE-ΔF cells; format: cell-based, human; settings: polarized CFBE-ΔF monolayers, 3.5 hour incubation; for improvement in chloride secretion with respect to control peptide kCAL31: peptide delivered with BioPORTER, change in short circuit current on CFTR-specific inhibitor after amiloride, forskolin, genistein
Protocol: Ussing chamber experiments were performed as described previously. Polarized monolayers of patient-derived bronchial epithelial cells, CFBE- [drawing 180] F cells (a generous gift of Dr. J.P. Clancy, [63]), were maintained in MEM with 2 mM l-glutamine, 10% fetal bovine serum, 50 units/mL penicillin, [drawing 181] streptomycin, [drawing 182] puromycin, [drawing 183] plasmocin, and [drawing 184] amphotericin B. Cells were grown at [drawing 185] in 5% [drawing 186] . Twenty four hours before treatment the cells were moved to MEM with only penicillin and streptomycin. Peptides were dissolved in DMSO and diluted to [drawing 187] in PBS. Peptide solutions were applied to cells following incubation with BioPORTER delivery reagent (Sigma). […] Following a 3.5 hour incubation with peptide, short circuit currents ( [drawing 188] ) were monitored in Ussing chambers. Following treatment with amiloride, forskolin, and genistein, ΔF508-CFTR chloride flux was measured as the change in [drawing 189] when the CFTR-specific inhibitor, [drawing 190] [64], [65], was applied to the cell monolayer. All measurements were performed at [drawing 191] .

CAL PDZ domain [4] = target: T1, CAL PDZ domain; experiment: ProLib profile library SPOT array; format: binding; settings: 10 µg/ml His-tagged CAL PDZ domain, anti-His/anti-mouse-HRP detection
Protocol: After the [drawing 124] predictions were calculated, the binding of C-termini peptides to CAL was also experimentally assessed using an additional SPOT array. The profile library array (ProLib; Fig. S3 in Text S1) was designed based on the following motif: bbbb [drawing 125] (B = permutation of a defined set of amino acids, b = mixture of 17 amino acids, without C, M and W). The defined set of amino acids were selected based on the HumLib results combined with substitutional analyses with [drawing 126] = A/C/D/E/F/I/K/L/M/N/Q/R/S/T/V/W/Y, [drawing 127] = S/T, [drawing 128] = A/C/D/E/F/I/K/L/M/N/Q/R/S/T/V/W/Y, [drawing 129] = I/L/V (Total number of peptides = 1734+22 internal control sequences). Incubation condition: [drawing 130] His-tagged CAL PDZ domain detected by anti-His (Sigma; 1∶2600)/anti-mouse-HRP (Calbiochem; 1∶2000) antibody sandwich.
Fig. S3. CAL binding data for ProLib spot array. We selected the amino acid prefer-ences of the last 4 C-terminal ligand residues based on their frequency deduced from the 6223-Humlib and the substitutional analysis. […] Incubation condition: 10 µg/ml His-tagged CAL PDZ domain detected by anti-His (Sigma; 1:2600)/anti-mouse-HRP (Calbiochem; 1:2000) antibody sand- […]

Molecule: COc1ccc(Cl)cc1Nc1nc(-c2sc(NC(=O)c3ccccc3)nc2C)cs1 [corr-4a]
- increase in ΔF508-CFTR levels (ΔF508-CFTR chloride flux [1]): 15%

Molecule: Ac-WQDSGI [kCAL31]
- Experimental Ki (inhibitor dissociation constant) (CAL PDZ domain [2]; FP competition with labeled peptide, 25 mM Tris-HCl pH 8.5, 150 mM NaCl, 0.1 mg/mL bovine IgG, 0.5 mM Thesit, average of three FP experiments on separate days): no binding was detected; also recorded: no CAL binding detected

Molecule: Ac-WQFTRL [kCAL02, Ac-WQFTRL]
- Ki (CAL PDZ domain [2]): < 14 µM

Molecule: Ac-WQKTRI [kCAL05, Ac-WQKTRI]
- Ki (CAL PDZ domain [2]): < 14 µM

Molecule: Ac-WQKTRL [kCAL03, Ac-WQKTRL]
- Ki (CAL PDZ domain [2]): < 14 µM

Molecule: Ac-WQRTRL [kCAL04, Ac-WQRTRL]
- Ki (CAL PDZ domain [2]): < 14 µM

Molecule: Ac-WQVTRV [kCAL01, Ac-WQVTRV]
- binding efficiency (ratio of inhibitor potency, ΔG, to molecular mass) relative to F*-iCAL36 (CAL PDZ domain [2]): approximately twice
- improvement in CAL binding affinity compared to iCAL35 (CAL PDZ domain [2]; FP): six-fold
- improvement in CAL binding affinity over HumLib01 (CAL PDZ domain [2]; FP): six-fold
- Ki (CAL PDZ domain [2]): < 14 µM
- fold higher affinity than any comparable natural ligand (CAL PDZ domain [2]; versus best known natural ligand ANGLMQTSKL): 9 fold
- fold tighter binding to CAL than the CFTR C-terminus (CAL PDZ domain [2]; versus wild-type CFTR sequence TEEEVQDTRL): 170 fold
- improvement in chloride secretion with respect to reference peptide iCAL35 (ΔF508-CFTR chloride flux [3]; BioPORTER delivery): 8%
- improvement in chloride secretion with respect to control peptide kCAL31 (ΔF508-CFTR chloride flux [3]): 12%

Molecule: WQSTRL [HumLib01]
- improvement in CAL binding affinity compared to iCAL35 (CAL PDZ domain [2]; FP): only a marginal improvement
- CAL binding in ProLib array (CAL PDZ domain [4]): strongest binder

Molecule: WQTSII [iCAL35, reference compound]
- improvement in chloride secretion with respect to control peptide kCAL31 (ΔF508-CFTR chloride flux [3]): 4%
